Key:
CTX-I = assay: Serum CTX-I ELISA; type: in vivo, mouse; conditions: d17
Procedure: ELISA. Mouse high-sensitivity IFN-α ELISA kit (42115-1) and IFN-β ELISA kit (42410-1) were purchased from PBL Assay Science. Mouse CTX-I ELISA kit (AC-06F1) and mouse PINP ELISA kit (AC-33F1) were purchased from Immunodiagnostic Systems. ELISA was performed using culture medium, serum, and bone marrow lysates. Serum was obtained from whole blood that was collected from a submandibular vein via facial vein puncture, coagulated for 30 minutes at room temperature, followed by centrifugation (2,000 ×g for 10 min, 4° C.) and collection of the supernatant (serum). Bone marrow was homogenized in a lysis buffer containing protease inhibitors at 4° C. for 30 minutes. ELISA was conducted in accordance with the manufacturer's instructions. A standard curve was performed for each experiment.

[1] = test system: LLC / LL/2-Luc2 / E0771 bone tumors; assay: Local tumor burden (bioluminescence imaging, thigh circumference ratio); type: in vivo, mouse
Procedure: Culture of LLC cells and measurement of local tumor burden: Murine LLC cells were cultured in high glucose (4.5 g/L) Dulbecco's Modified Eagle Medium (DMEM; ThermoFisher) supplemented with 10% fetal bovine serum (Gibco, ThermoFisher) and 1% Antibiotic-Antimycotic solution containing penicillin, streptomycin, and Amphotericin B (ThermoFisher, 15240062). Cells were cultured in the presence of 5% CO2 at 37° C. Cells were passaged using a 0.05% trypsin digest once they achieved 70% confluency. Prior to in vivo injection, cells were harvested with 0.05% trypsin digestion followed by several washes in PBS. Cell counts were performed using a hemocytometer and diluted to achieve a suspension of 1×10^8 ml-1 cells in PBS. To determine whether i.t. STING agonists altered local tumor burden induced by femoral inoculation with LLC cells, mice were lightly anesthetized with isoflurane at the conclusion of the experiment, followed by measurement of the total circumference of the widest aspect of the thigh, which accurately reflects tumor burden. Ratios were computed between the ipsilateral (LLC-inoculated) and contralateral (tumor-free) legs.
In vivo bioluminescence imaging. RediJect D-Luciferin Ultra was purchased from PerkinElmer (770505). Prior to in vivo imaging, mice were shaved in the region of interest depicted in the figure. Bioluminescence images of LL/2-Luc2 bearing mice were captured with IVIS Lumina III system 15 min after intraperitoneal injection of D-Luciferin (30 mg/kg). The IVIS acquisition control panel was set to following conditions for imaging: Exposure time=auto, Binning=medium, F/Stop=1, Emission Filter=open. The bioluminescence images were analyzed using Living Image software from PerkinElmer.
STING agonists suppress local bone cancer tumor burden and further metastasis. Intratumoral injection of STING agonists has been reported to reduce tumor growth by promoting T cell-mediated antitumor immunity in several preclinical animal studies. It is unknown, however, whether systemic administration of STING agonists can attenuate tumor progression in the bone marrow, which is generally regarded as an overwhelmingly immunosuppressive tumor microenvironment. To answer this question, luciferase-labeled LLC cells (LL/2-LUC2 cell line) were used to establish the metastatic bone cancer model via intrafemoral inoculation, thereby enabling measurement of local tumor burden by in vivo bioluminescent imaging. Mice were treated with vehicle or DMXAA (20 mg/kg, i.p. at d3 and d7), followed by in vivo bioluminescence imaging at d8, d11, and d15. […] To quantify this, we measured the ratio of the maximum thigh circumference (ipsilateral/contralateral), which accurately reflects local tumor volume. […]

[2] = test system: outer lamina II (IIo) spinal cord interneurons; assay: Whole-cell patch-clamp recording in mouse spinal cord slices; type: cell-based; conditions: slice incubation
Procedure: Whole-cell patch-clamp recording in mouse spinal cord slices: 4 to 6-week-old mice were anesthetized with urethane (1.5-2.0 g/kg, i.p.). […] After extraction of the spinal cord under anesthesia, animals were rapidly euthanized via decapitation. Transverse spinal slices (300 to 400 μm) were prepared using a vibrating microtome (VT1200S Leica). The slices were incubated at 32° C. for at least 30 min in ACSF equilibrated with 95% O2 and 5% CO2. The slices were placed in a recording chamber and completely submerged and perfused at a flow rate of 2 to 4 ml/min with ACSF saturated with 95% O2 and 5% CO2 at room temperature. Lamina II neurons in lumbar segments were identified as a translucent band under a microscope (BX51WIF; Olympus) with light transmitted from below. Whole-cell voltage-clamp recordings were made from outer lamina II neurons using patch pipettes. The patch pipette solution used to record sEPSCs contained 135 mM K-gluconate, 5 mM KCl, 0.5 mM CaCl2, 2 mM MgCl2, 5 mM EGTA, 5 mM HEPES, and 5 mM Mg-ATP (pH 7.3 adjusted with KOH). […] Signals were acquired using an […] amplifier. The data were stored and analyzed with a PC using pCLAMP 10.3 software.

SMILES: Cc1ccc2c(=O)c3cccc(CC(=O)O)c3oc2c1C [DMXAA, 2-(5,6-dimethyl-9-oxo-9H-xanthen-4-yl)acetic acid]
- serum CTX-I levels (CTX-I): could effectively reduce CTX-I levels on d17
- local tumor burden (total flux, bioluminescence) ([1]; LL/2-Luc2, 20 mg/kg i.p. d3 and d7): lower local tumor burden at d11 and d15
- local tumor burden, Batf3^+/+ vs Batf3^−/− ([1]; d17): only tumor-bearing Batf3^+/+ mice but not Batf3^−/− mice exhibited a decrease in local tumor burden
- ratio of maximum thigh circumference, WT vs Rag1^−/− ([1]; d17): effectively reduced the ratio of maximum thigh circumference only in WT mice but not in Rag1^−/− mice
- ratio of maximum thigh circumference (ipsilateral/contralateral) ([1]; day 17, LLC and E0771 models): could reduce the ratio of maximum thigh circumference

SMILES: Nc1ncnc2c1ncn2[C@@H]1O[C@@H]2COP(=O)([S-])O[C@@H]3[C@H](O)[C@@H](COP([O-])(=S)O[C@H]2[C@H]1O)O[C@H]3n1cnc2c(N)ncnc21.[Na+].[Na+] (stereo partly drawn) [ADU-S100, (2′-5′)-[P(R)]-5′-O-[(R)-hydroxymercaptophosphinyl]-P-thioadenylyl-adenosine cyclic dinucleotide]
- frequency and amplitude of spontaneous EPSCs (sEPSCs) [2]: decreased both the frequency and amplitude of spontaneous EPSCs

From patent US20230158057A1, “COMPOSITIONS AND METHODS FOR THE TREATMENT OF PAIN” (Duke University, priority 2020, published 2023)
